The inhibition is the share of the control response that was lost under treatment. The IC50 is the point on the concentration scale where inhibition reaches its midpoint. One may read the half-life as how long it takes for the measured level to halve. Broadly, the Cmax is the maximum level reached in the sampled fluid or tissue. As usually defined, the AUC is concentration integrated over time. The low end stands for low exposure, the high end for high exposure. Usually Tmax stands for the time from dosing to the highest level. One may read the CL/F as the apparent clearance, not corrected for the fraction that reaches the circulation. Broadly, the bioavailability is the share of a dose that reaches the circulation, judged against a reference dose that is usually intravenous. Low values mean poor availability, high ones good availability. Usually solubility stands for the concentration that dissolves in the medium under given conditions. Usually inhibition in vivo stands for the percentage by which the read-out fell short of the control.

Values after ≈ are worked out from the molar mass of the structure shown. Active and inactive are the calls of the source. No cut-off for these calls is given here.

The target of data set [1] is T1, P2Y purinoceptor 14 (Homo sapiens) (UniProt Q15391).
T1 sequence (whole entry): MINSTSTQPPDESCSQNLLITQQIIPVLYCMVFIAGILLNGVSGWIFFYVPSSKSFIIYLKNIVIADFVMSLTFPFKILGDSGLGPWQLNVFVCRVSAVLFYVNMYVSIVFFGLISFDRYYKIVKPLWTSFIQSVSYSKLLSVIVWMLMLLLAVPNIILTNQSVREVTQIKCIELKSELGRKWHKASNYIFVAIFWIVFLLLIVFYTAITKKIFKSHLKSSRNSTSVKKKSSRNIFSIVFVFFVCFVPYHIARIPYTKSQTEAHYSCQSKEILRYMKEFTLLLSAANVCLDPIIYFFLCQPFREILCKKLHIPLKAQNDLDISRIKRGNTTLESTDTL
As to conditions: time 30.0 min.

The target in the next data set is T2, P2Y purinoceptor 14 (Homo sapiens, UniProt Q15391).
T2 sequence (Q15391 whole entry): T1 sequence (whole entry)
Nature of the data set: Antagonist activity at P2Y14 (unknown origin) expressed in HEK293 cells assessed as reduction in cAMP production incubated for 30 mins by ADP-glo assay. The format is functional, cell-based. In general terms: cAMP levels reflect the balance of adenylyl cyclase and phosphodiesterase activity.

Data set [2] can be described thus: Chemical stability of compound in DMSO. Format: physicochemical.
A short description of data set [3]: Metabolic stability in human liver microsomes assessed as half life at […] incubated for 45 mins by LC-MS/MS analysis. Format: ADME, Microsome. (Liver microsomes are a subcellular fraction often used to study metabolism.)
Data set [4] can be described thus: Cmax in mouse at 5 mg/kg, iv. Format: ADME, organism-based. The arrangement: route intravenous, dose 5 mg/kg. As to conditions: in vivo.
Data set [5] is described as follows: Half life in mouse at 5 mg/kg, iv. Format: ADME, organism-based. The following applies: in vivo.
The nature of data set [6]: AUC in mouse at 5 mg/kg, iv. Format: ADME, organism-based. Also on record: dose 5 mg/kg. As to conditions: in vivo.
Data set [7] can be described thus: Volume of distribution at steady state in mouse at 5 mg/kg, iv. The format is ADME, organism-based. The following applies: in vivo, read-out: Vdss.
The nature of data set [8]: Tmax in mouse at 5 mg/kg, iv. Format: ADME, organism-based. The following applies: in vivo.
A short description of data set [9]: Cmax in mouse at 10 mg/kg, po. Format: ADME, organism-based. The arrangement: route oral, dose 10 mg/kg. The following applies: in vivo.
The nature of data set [10]: Half life in mouse at 10 mg/kg, po. Format: ADME, organism-based. As to conditions: in vivo.
Data set [11] can be described thus: AUC in mouse at 10 mg/kg, po. Also on record: dose 10 mg/kg. The format is ADME, organism-based. As to conditions: in vivo.
Data set [12] can be described thus: Volume of distribution at steady state in mouse at 10 mg/kg, po. Format: ADME, organism-based. The following applies: in vivo.
Data set [13] in a line: Clearance in mouse at 10 mg/kg, po. The format is ADME, organism-based. As to conditions: in vivo.
Data set [14] in a line: Oral bioavailability in mouse at 10 mg/kg. The format is ADME, organism-based. As to conditions: in vivo.
The nature of data set [15]: Aqueous solubility of compound in PBS buffer at pH 7.4 incubated for overnight by UV-spectrometry. Format: physicochemical.
For data set [16], the system named is Mus musculus. As to the kind of experiment: Antiarthritic activity against MSU-induced acute gout arthritis ICR mouse model assessed as reduction in paw swelling at 10 mg/kg, sc measured upto 24 hrs. Format: functional, organism-based. As to conditions: time hrs <=24.
The test system of data set [17] is Mus musculus. Nature of the data set: Antiarthritic activity against MSU-induced acute gout arthritis ICR mouse model assessed as reduction in infiltration of inflammatory cells at 10 mg/kg, sc measured upto 24 hrs. Format: functional, organism-based. As to conditions: time hrs <=24.
Data set [18] concerns Mus musculus. Nature of the data set: Downregulation of MSU-induced NLRP3 expression in foot tissue of MSU-induced acute gout arthritis ICR mouse model at 10 mg/kg, sc measured upto 24 hrs by Western blot analysis. The format is functional, organism-based. As to conditions: time hrs <=24. (In general: In western blotting, separated proteins are transferred to a membrane and probed.)

The subject of data set [19] is Mus musculus. As to the kind of experiment: Downregulation of MSU-induced ASC expression in foot tissue of MSU-induced acute gout arthritis ICR mouse model at 10 mg/kg, sc measured upto 24 hrs by Western blot analysis. Format: functional, organism-based. As to conditions: time hrs <=24.
Data set [20] relates to Mus musculus. As to the kind of experiment: Downregulation of MSU-induced caspase-1 P20 expression in foot tissue of MSU-induced acute gout arthritis ICR mouse model at 10 mg/kg, sc measured upto 24 hrs by Western blot analysis. Format: functional, organism-based. As to conditions: time hrs <=24.
Data set [21] relates to Mus musculus. Nature of the data set: Inhibition of MSU-induced IL-1beta level in foot tissue of MSU-induced acute gout arthritis ICR mouse model at 10 mg/kg, sc measured upto 24 hrs by Western blot analysis. Format: functional, organism-based. The following applies: time hrs <=24.
Data set [22] concerns Mus musculus. As to the kind of experiment: Inhibition of MSU-induced IL-8 level in foot tissue of MSU-induced acute gout arthritis ICR mouse model at 10 mg/kg, sc measured upto 24 hrs by Western blot analysis. Format: functional, organism-based. The following applies: time hrs <=24.
Data set [23] deals with Mus musculus. As to the kind of experiment: Inhibition of MSU-induced GSDMD-NT level in foot tissue of MSU-induced acute gout arthritis ICR mouse model at 10 mg/kg, sc measured upto 24 hrs by Western blot analysis. Format: functional, organism-based. As to conditions: time hrs <=24.
Data set [24] in a line: In vivo inhibition of MSU-induced pyroptosis in ICR mouse model of acute gout arthritis assessed as viable macrophage cells in foot tissue at 10 mg/kg, sc incubated for 24 hrs by caspase-1 and PI staining based flow cytometric analysis (reference value: 34.3 %). Format: functional.
A short description of data set [25]: In vivo inhibition of MSU-induced pyroptosis in ICR mouse model of acute gout arthritis assessed as early apoptotic macrophage cells in foot tissue at 10 mg/kg, sc incubated for 24 hrs by caspase-1 and PI staining based flow cytometric analysis (reference value: 12.7 %). Format: functional.
Data set [26] is described as follows: In vivo inhibition of MSU-induced pyroptosis in ICR mouse model of acute gout arthritis assessed as late apoptotic macrophage cells in foot tissue at 10 mg/kg, sc incubated for 24 hrs by caspase-1 and PI staining based flow cytometric analysis (reference value: 21.6 %). Format: functional.
Data set [27] can be described thus: In vivo inhibition of MSU-induced pyroptosis in ICR mouse model of acute gout arthritis assessed as necrotic macrophage cells in foot tissue at 10 mg/kg, sc incubated for 24 hrs by caspase-1 and PI staining based flow cytometric analysis (reference value: 31.4 %). The format is functional.
Where [28] appears, read: HEK293, filed as antagonist, dose 100.0 nM.

Regarding `Cc1ccc(C(=O)Nc2cc(C(=O)O)cc(-c3ccc(C)o3)c2)cc1`, the inhibition in data set [1] (HEK293, dose 100.0 nM) amounted to 16.1%.
Consider `Cc1ccc(C(=O)Nc2cc(C(=O)O)cc(-c3ccoc3)c2)cc1`, for which the IC50 at P2Y purinoceptor 14 was determined as 2.18 nM. In addition, the Stabilty entry in data set [2] is recorded as “Stable”. Besides, the half-life is above 1 h in data set [3], 2.32 h in data set [5] and 2.56 h in [10]. Besides, the results for the Cmax in [4] and in [9] were 19300 ng/mL and 1800 ng/mL, respectively. The AUC in [6] was 843849 ng·min/mL; in data set [11], 7280 ng·h/mL. Further, the Vd in data set [7] came to 0.782 L/kg. Further, the Tmax in data set [8] is 5 min. Further, the Vdss in data set [12] turned out to be 0.21267 L/kg. For the same compound, in data set [13], the CL/F worked out at 6.03 mL/min/kg. The compound further had a bioavailability in data set [14] of 48.3%. In data set [15], this compound had a solubility of 77.6 µg/mL (≈ 241 µM). The result in the data set with Mus musculus [16], in the data set with Mus musculus [17], in the data set with Mus musculus [18], in the data set on Mus musculus [19] and in the data set with Mus musculus [20] was Active. In addition, the inhibition result in the data set with Mus musculus [21], with Mus musculus [22] and with Mus musculus [23] was “Active” each time. In addition, the inhibition in vivo at 10 mg/kg in [24] is 43.2%; in [25], 13%; in data set [26], 10.9%; in data set [27] it was 33%. Also, the inhibition in data set [1] (setting [28]) turned out to be 93.4%.
In [1] (setting [28]), `COc1ccc(-c2cc(NC(=O)c3ccc(C)cc3)cc(C(=O)O)c2)cc1` displayed an inhibition of 79.1%.
`Cc1ccc(C(=O)Nc2cc(C(=O)O)cc(-c3ccncc3)c2)cc1` had an inhibition in data set [1] (setting [28]) of 72.1%.
`Cc1ccc(C(=O)Nc2cc(C(=O)O)cc(-c3cccs3)c2)cc1` showed an inhibition in data set [1] (setting [28]) of 68.8%.
Compound `COc1ncc(-c2cc(NC(=O)c3ccc(C)cc3)cc(C(=O)O)c2)cn1` yielded an inhibition in data set [1] (setting [28]) of 72.5%.
In data set [1] (setting [28]), `Cc1ccc(C(=O)Nc2cc(C(=O)O)cc(-c3ccc(C)s3)c2)cc1` returned an inhibition of 60.2%.
In data set [1] (setting [28]), `CC(=O)c1ccc(-c2cc(NC(=O)c3ccc(C)cc3)cc(C(=O)O)c2)s1` had an inhibition of 43.7%.
In the case of `Cc1ccc(C(=O)Nc2cc(C(=O)O)cc(-c3cnc(N)nc3)c2)cc1`, the inhibition in data set [1] (setting [28]) stood at 68.6%.
On the same count and under the same terms, the value for `Cc1ccc(C(=O)Nc2cc(C(=O)O)cc(-c3ccc[nH]3)c2)cc1` was 46%.
As for `Cc1ccc(C(=O)Nc2cc(C(=O)O)cc(-c3ccco3)c2)cc1`, in data set [1] (setting [28]), the inhibition was 61.1%.
Consider `Cc1ccc(C(=O)Nc2cc(C(=O)O)cc(-c3c(C)noc3C)c2)cc1`, for which the IC50 on P2Y purinoceptor 14 was 2.95 nM. In data set [2], the Stabilty entry was “Unstable”. Moreover, in data set [1] (setting [28]), the inhibition stood at 82.3%.
In the case of `Cc1ccc(C(=O)Nc2cc(C(=O)O)cc(-c3ccsc3)c2)cc1`, the IC50 on P2Y purinoceptor 14 was 9.74 nM. The compound also had an inhibition in [1] (setting [28]) of 83%.
`Cc1ccc(C(=O)Nc2cc(C(=O)O)cc(-c3cccnc3)c2)cc1` returned an inhibition in [1] (setting [28]) of 79.1%.
In the case of `Cc1ccc(C(=O)Nc2cc(C(=O)O)cc(-c3cc[nH]n3)c2)cc1`, at P2Y purinoceptor 14, the IC50 was found to be 2.63 nM. Moreover, in data set [2], the Stabilty entry is given as “Unstable”. The compound also returned an inhibition in data set [1] (setting [28]) of 86.8%.
`Cc1ccc(C(=O)Nc2cc(C(=O)O)cc(-c3ccc(C4CCNCC4)cc3)c2)cc1` registered a bioavailability in [14] of 6%. This compound also showed an inhibition in data set [1] (setting [28]) of 85.3%.
For `O=C(O)c1cc(-c2ccc(C3CCNCC3)cc2)c2ccc(-c3ccc(C(F)(F)F)cc3)cc2c1` [PPTN], the bioavailability in data set [14] turned out to be 7%. For the same compound, the solubility in data set [15] is below 5 µg/mL. In addition, the outcome with Mus musculus [16], in the data set on Mus musculus [17], with Mus musculus [18], with Mus musculus [19] and in the data set on Mus musculus [20] was Active. The inhibition result in the data set with Mus musculus [21], with Mus musculus [22] and in the data set with Mus musculus [23] was “Active” throughout. Further, the inhibition in vivo at 10 mg/kg came out at 65.1% in [24], 17.3% in data set [25], 6.41% in data set [26] and 11.1% in data set [27].
`Cc1ccc(C(=O)Nc2cc(C(=O)O)cc(-c3ccccc3)c2)cc1`: the IC50 at P2Y purinoceptor 14 turned out to be 4.85 nM. The amount in solution in [15] (solubility) came to 46.3 µg/mL (≈ 140 µM). The inhibition in data set [1] (setting [28]) was determined as 87%.
Regarding `Cc1ccc(C(=O)Nc2cc(C(=O)O)cc(-c3cncnc3)c2)cc1`, in [1] (setting [28]), the inhibition worked out at 65.7%.

The record behind these values is ChEMBL document CHEMBL4813969, “Design, synthesis and evaluation of 3-amide-5-aryl benzoic acid derivatives as novel P2Y14R antagonists with potential high efficiency against acute gouty arthritis” (Eur J Med Chem, 2021).
